Experimental data from EP2327766B1, “Nitrilases” (BASF Enzymes LLC, priority 2001, dated 2003).

System: nitrilase SEQ ID NOS:103, 104
Experiment: Effect of starting material and product on nitrilase activity (phenylacetaldehyde cyanohydrin hydrolysis)
Format: biochemical, Unknown (obtained from an environmental sample)
Settings: up to levels of 5 mM
Experimental: The effect of the process components on the activity of the enzymes was established by addition of the individual components to the enzymatic reaction. These components included the starting materials for the nitrile synthesis, aldehyde, cyanide and ammonium, as well as triethylamine, which is added in catalytic amounts to the nitrile synthesis reaction. The concentrations of the reactants were selected with possible process conditions in mind and were adapted to the levels of reactants used in the enzyme assays. In some cases, the solubility of the aldehydes and products was relatively low; in these cases, the highest level of solubility was added to the reactions as the highest level and 10% of this level as the lower value.
The enzymatic reactions were carried out under standard conditions, with addition of one or more of the following components: benzaldehyde, phenylglycine, phenylacetaldehyde, phenyllactic acid, 2-chlorobenzaldehyde, 2-chloromandelic acid, 5-hydroxypentanal, (S)-2-amino-6-hydroxy hexanoic acid, 4-methylleucine, KCN, Triethylamine, NH4Cl. Control reactions were performed under standard conditions, with no additive. The samples were analyzed by non-chiral HPLC.
SEQ ID NOS: 103, 104 was identified as a highly enantioselective nitrilase for the production of (S)- phenyllactic acid. […] The scaled-up enzymatic reaction with an enantiomeric excess (ee) of 95%. […]

Compound	effect on the enzyme activity
O=CCc1ccccc1 [phenylacetaldehyde]	no effect

System: Nitrilase II, SEQ ID NOS:103, 104, obtained from an environmental sample
Experiment: High throughput nitrilase activity assay, turnover frequency on aryl acetaldehyde cyanohydrins
Format: biochemical, Unknown (obtained from an environmental sample)
Settings: conditions as in Table 13 (25 mM substrate, 10% MeOH, 37°C, pH 8), except 0.016 mg/mL nitrilase
Excerpt: We next examined the preparation of aryllactic acid derivatives 6 through hydrolysis of the corresponding cyanohydrins 5. Phenyllactic acid and derivatives serve as versatile building blocks for the preparation of numerous biologically active compounds. (Coppola, G.M.; Schuster, H.F. Chiral α-Hydroxy Acids in Enantioselective Synthesis; Wiley-VCH: Weinheim, Germany: 1997.) Upon screening our nitrilase library against the parent cyanohydrin 5a (Ar= phenyl), we found several enzymes that provided 6a with high enantiomeric excess. One enzyme, SEQ ID NOS: 103, 104, was further characterized. […] The highest [drawing 20] enantioselectivity previously reported for biocatalytic conversion of 5 to 6 was 75% ee achieved through a whole cell transformation using a Pseudomonas strain. (Hashimoto, Y.; Kobayashi, E.; Endo, T.; Nishiyama, M.; Horinouchi, S. Biosci. Biotech. Biochem. 1996, 60, 1279.) Table 14. Nitrilase II-catalyzed production of aryllactic acid derivatives and analogues 6a
(§1) Assay solutions consisted of 0-10% (v/v) MeOH in 0.1 M sodium phosphate buffer solution at pH 7 to 9 and temperatures 37°C or 22°C. Specific activities were measured at 5 min transformation time point, unless otherwise noted, and are expressed in units µmol mg^-1 min^-1. Enantiomeric excess and conversion rates were determined by high throughput HPLC analysis comparing enzyme product concentration to standard curves of racemic acid products. Analytical conditions for the products are tabulated below.

Compound	TOF (turnover frequency)
3-pyridyl acetaldehyde cyanohydrin	7.2 mol product/mol catalyst/sec
N#CC(O)Cc1cccc2ccccc12 (stereo not shown) [1-napthyl acetaldehyde cyanohydrin]	40 mol product/mol catalyst/sec
N#CC(O)Cc1ccccc1Br (stereo not shown) [2-bromophenyl acetaldehyde cyanohydrin]	76 mol product/mol catalyst/sec
N#CC(O)Cc1ccccc1F (stereo not shown) [2-fluorophenyl acetaldehyde cyanohydrin]	97 mol product/mol catalyst/sec
Cc1ccccc1CC(O)C#N (stereo not shown) [2-methylphenyl acetaldehyde cyanohydrin]	100 mol product/mol catalyst/sec
N#CC(O)Cc1ccccn1 (stereo not shown) [2-pyridyl acetaldehyde cyanohydrin]	6.6 mol product/mol catalyst/sec
N#CC(O)Cc1cccs1 (stereo not shown) [2-thienyl acetaldehyde cyanohydrin]	2.1 mol product/mol catalyst/sec
Cc1cccc(CC(O)C#N)c1 (stereo not shown) [3-methylphenyl acetaldehyde cyanohydrin]	13 mol product/mol catalyst/sec
N#CC(O)Cc1ccsc1 (stereo not shown) [3-thienyl acetaldehyde cyanohydrin]	1.4 mol product/mol catalyst/sec
N#CC(O)Cc1cccc(F)c1 (stereo not shown) [3-tluorophenyl acetaldehyde cyanohydrin]	14 mol product/mol catalyst/sec
N#CC(O)Cc1ccccc1 (stereo not shown) [phenyl acetaldehyde cyanohydrin]	16 mol product/mol catalyst/sec

System: nitrilase SEQ ID NOS:385, 386 (nitrilase I), obtained from an environmental sample
Experiment: High throughput nitrilase activity assay, turnover frequency on mandelonitrile derivatives
Format: biochemical, Unknown (obtained from an environmental sample)
Settings: 25 mM substrate, 0.12 mg/mL enzyme, 10% MeOH (v/v) 0.1 M phosphate buffer, 37°C, pH 8; 5 min timepoint
Experimental: The nitrilase library was screened for activity and enantioselectivity in the hydrolysis of mandelonitrile (3a, Ar = phenyl) to mandelic acid. […] Under standard conditions using 25 mM 3a and 0.12 mg/mL enzyme in 10% MeOH (v/v) 0.1 M phosphate buffer at 37°C and pH 8, (R)-mandelic acid was formed quantitatively within 10 min and with 98% ee. To confirm synthetic utility, the reaction was performed using 1.0 g 3a (50 mM) and 9 mg nitrilase (0.06 mg/mL nitrilase I); after 3 h (R)-mandelic acid was isolated in high yield (0.93 g, 86%) and again with 98% ee. [drawing 19] Table 13. SEQ ID NOS:385, 386-catalyzed production of mandelic acid derivatives and analogues 4a
as §1, with “Activity assays were conducted using 25 mM (-3 mg/mL) substrate, 0.1 mg/mL nitrilase in 0.25 mL of assay solution. Assay” for “Assay”

Compound	TOF (turnover frequency)
N#CC(O)c1ccccc1Br (stereo not shown) [2-bromomandelonitrile]	5.6 mol product/mol catalyst/sec
N#CC(O)c1ccccc1Cl (stereo not shown) [2-chloro mandelonitrile]	1.7 mol product/mol catalyst/sec
Cc1ccccc1C(O)C#N (stereo not shown) [2-methylmandelonitrile]	5.1 mol product/mol catalyst/sec
N#CC(O)c1cccc(Br)c1 (stereo not shown) [3-bromomandelonitrile]	1.7 mol product/mol catalyst/sec
N#CC(O)c1cccc(Cl)c1 (stereo not shown) [3-chloromandelonitrile]	3.4 mol product/mol catalyst/sec
N#CC(O)c1cccnc1 (stereo not shown) [3-pyridyl cyanohydrin]	18.6 mol product/mol catalyst/sec
N#CC(O)c1ccsc1 (stereo not shown) [3-thienyl cyanohydrin]	16.8 mol product/mol catalyst/sec
N#CC(O)c1ccc(F)cc1 (stereo not shown) [4-fluoromandelonitrile]	11.8 mol product/mol catalyst/sec
N#CC(O)c1ccccc1 (stereo not shown) [mandelonitrile]	28 mol product/mol catalyst/sec

Same assay, conditions: entries 8-9: pH 9 and 5 mM substrate concentration; otherwise standard conditions

Compound	TOF (turnover frequency)
N#CC(O)c1cccc2ccccc12 (stereo not shown) [1-naphthyl cyanohydrin]	2.8 mol product/mol catalyst/sec
N#CC(O)c1ccc2ccccc2c1 (stereo not shown) [2-naphthyl cyanohydrin]	2.8 mol product/mol catalyst/sec

System: nitrilase SEQ ID NOS:385, 386, obtained from an environmental sample
Experiment: Effect of reaction components on nitrilase activity (2-chloromandelonitrile hydrolysis, non-chiral HPLC)
Format: biochemical, Unknown (obtained from an environmental sample)
Settings: 5 mM additive; 25 mM 2-chloromandelonitrile, 0.1 M phosphate buffer pH 8, 37°C
Excerpt: A vital part of an investigation into process optimization of an enzyme involves the determination of the effects of any compounds which could be present in the enzymatic reaction. For SEQ ID NOS:385, 386, these components were established as the starting material and equilibrium product of the cyanohydrin, 2-chlorobenzaldehyde; the product, 2-chloromandelic acid and the contaminant detected in the substrate, 2-chlorobenzoic acid. […] The presence of trace amounts of triethylamine was also found to be tolerable to the enzyme.
The effect of the various reaction components on the activity of SEQ ID NOS:385, 386 was assessed by addition of various levels of possible inhibitors to the enzyme reaction. […]
• (i) Activity: The effect of the process components on the activity of the enzymes was established by addition of the individual components, 2-chlorobenzaldehyde, 2-chlorobenzoic acid or 2-chloromandelic acid, to the enzymatic reaction. […] The samples were analysed by non-chiral HPLC. • (ii) Stability: The stability of the enzymes to process conditions was monitored by incubation of the enzymes in the presence of the reaction components, 2-chlorobenzaldehyde and 2-chloromandelic acid for predetermined time periods, prior to assay of the enzyme activity under standard conditions. […]

Compound	activity lost upon addition to the reaction
O=Cc1ccccc1Cl [2-chlorobenzaldehyde]	Approximately 70%
O=C(O)c1ccccc1Cl [2-chlorobenzoic acid]	~40%

System: nitrilase expressing subclones SEQ ID NOS:101, 102, SEQ ID NOS:187, 188, SEQ ID NOS:29, 30
Experiment: Growth of nitrilase expressing subclones in the presence of HPA nitrile
Format: cell-based
Settings: cells grown at pH 7
Experimental: In preparation for assay automation, nitrilase expressing cells were added into microtiter plate containing M9 0.2% glucose,0.25 mM IPTG media by florescence activated cell sorting (FACS). Three nitrilase expressing subclones, and the empty vector control were evaluated: SEQ ID NOS:101, 102, SEQ ID NOS:187, 188, SEQ ID NOS:29, 30 and the empty vector. […] Thus colony picking is currently being evaluated as an alternative method to add cells into microtiter plates. The evaporative loss from an uncovered 1536-well microtiter plate is approximately 30% per day in the robot incubator (incubator conditions: 37°C at 85% relative humidity (RH)). Incubation in the 95% RH incubator reduced evaporative loss to 1% per day.
The ability of the three subclones to grow in the presence of up to 3.5 mM of nitrile was established using HPA nitrile. Growth rates were only slightly retarded (less that 30%). […] Only S was evaluated as the enzymes are S-selective. The reaction plate was read at 10 minute intervals, with 40 minutes showing the best linearity.

Compound	concentration above which cell growth is significantly inhibited
CC(C)(CO)C(N)C#N (stereo not shown) [HPA, Hydroxypivaldehyde aminonitrile]	above 5 mM

Same assay, conditions: cells grown at pH 8

Compound	concentration above which growth was inhibited
CC(C)(CO)C(N)C#N (stereo not shown) [HPA, Hydroxypivaldehyde aminonitrile]	above 0.1 mM

Same assay, conditions: in the presence of up to 3.5 mM of nitrile

Compound	growth rates retarded
CC(C)(CO)C(N)C#N (stereo not shown) [HPA, Hydroxypivaldehyde aminonitrile]	< 30%
